By solubility is commonly meant the dissolved amount per volume that the medium holds.

Experimental findings from patent US20150150851A1, “FORMULATION AND DOSING OF HSP90 INHIBITORY COMPOUNDS” (Synta Pharmaceuticals Corp., priority 2010, published 2015) are described below.

This series can be described thus: Equilibrium solubility in polysorbate 80 / PEG 300 mixtures (72 hours, HPLC). The format is physicochemical. The settings on record: organic solvent or mixture, thermodynamic from solid.

Molecules are shown by their SMILES. In brackets after ≈: the same amount, converted by molar mass.

For `CC(C)c1cc(-c2n[nH]c(=O)n2-c2ccc3c(ccn3C)c2)c(O)cc1O` [Compound 1, 3-(2,4-dihydroxy-5-isopropyl-phenyl)-4-(1-methyl-indol-5-yl)-5-hydroxy-[1,2,4] triazole], the solubility at 72 h is, setting by setting: (polysorbate 80 / PEG 300 mixture, 40% PEG 300, 60% polysorbate 80, equilibrated 72 hours) 76.1 mg/mL (≈ 209 mM); (polysorbate 80 / PEG 300 mixture, 45% PEG 300, 55% polysorbate 80, equilibrated 72 hours) 84.7 mg/mL (≈ 232 mM); (polysorbate 80 / PEG 300 mixture, 50% PEG 300, 50% polysorbate 80, equilibrated 72 hours) 96.2 mg/mL (≈ 264 mM); (polysorbate 80 / PEG 300 mixtures, in all three polysorbate 80 / PEG 300 solutions) over 75 mg/mL.
